Patent US8906952B2, “Indole derivative or pharmaceutically acceptable salt thereof, preparation method thereof, and pharmaceutical composition for preventing or treating metabolic diseases containing same as active ingredient” (Korea Research Institute of Bioscience and Biotechnology, priority 2011, dated 2014)

Legend:
HuTu80 cells = experiment: DGAT activity inhibitory effect in HuTu80 cells (triglyceride production from [14C]oleate); assay type: cell-based, human; settings: for activity at 10 µM / inhibition at 10 µM / activity at 0.3 µM / activity at 1 µM / activity at 3 µM: Homo sapiens, HuTu80; for activity at 10 µM / activity at 0.3 µM / activity at 1 µM / activity at 3 µM: read-out: Triglyceride Production Rate (% of control)/HuTu80cells; for inhibition at 10 µM / inhibition of biosynthesis of triglycerides (in words): Hutu 80 cells; for inhibition at 10 µM: read-out: inhibitory activity on intracellular biosynthesis of triglycerides
Method: HuTu80 cells were seeded in 24-well culture plate by 2×10^5 cells/well. After 24 hr, the medium was exchanged with FBS-free DMEM and concurrently treated with sample and substrate. For the substrate, 0.5 μCi [^14C]oleate was respectively added and allowed to react for 2 hr. After the reaction, the substrate that was either not absorbed into cells or not used for the reaction were washed with PBS two times, and total fat containing triglyceride was extracted by adding 1 ml extraction solvent (n-hexane/2-propanol=3/2, v/v). The extract was concentrated with nitrogen gas. The total fat after elimination of extraction solvent was dissolved in organic solvent (chloroform/methanol=2/1, v/v), spotted on thin layer chromatography (TLC: silica gel 60F254, 0.5 mm, Merck), and developed on developing solvent (n-hexane/diethyl ether/acetic acid=80/20/1, v/v/v). After isolating triglyceride (R∫ value: 0.4) from TLC, exposing to the film with photosensitivity to energy of radioactive elements (imaging plate's Fujifilm, BAS-MS 2040) for 3 hr, and the radioactive dose of triglyceride was measured by conducting image analysis (FLA 7000).
The remaining cells after the extraction were dissolved in 0.3 ml 0.1N NaOH to measure the protein concentration of the cells used for the reaction. The protein quantification was performed with Lowry method-based, protein quantification kit (Bio-Rad). After seeding protein on 96-well, round bottom culture plate, 25 μl of solution containing 1 ml protein analysis reagent (bio-rad, alkaline copper tartrate solution) and 20 μl protein reagent S (bio-rad, surfactant solution) was seeded per well, to induce reaction between copper ion and protein. After reaction with copper ion, 200 μl reagent B (bio-rad, folin reagent) was seeded per well to allow reduction reaction of the folin reagent to occur. For the amount of protein, the light absorptivity at 750 nm was measured based on the blue coloring of the folin reagent as the reduction occurred, and the concentrations of the protein corresponding to respective light absorptivities were quantified by obtaining standard curves with the standard material as bovine serum albumin (BSA). Using the experiment value, which is obtained by dividing the measured radiation dose of the triglyceride by the protein concentration, the above process was repeated three or more times, and the mean value with ±standard error was obtained, as tabulated below.

HepG2 cells = experiment: DGAT inhibitory effect in HepG2 cells (triglyceride production from [14C]glycerol); assay type: cell-based; settings: Homo sapiens; for activity at 10 µM: HepG2, 6 h, DMSO control = 100, read-out: Triglyceride production rate (%)/HepG2 cells at 10 μM; for inhibition at 10 µM: HepG2, 10 μM, read-out: biosynthesis inhibition rate of triglyceride
Method: To investigate inhibition effect on intracellular DGAT enzyme activity of the compounds obtained in Examples 1-51, intracellular DGAT enzyme activity was measured using human-derived liver HepG2 cells.
HepG2 cells were purchased from ATCC, and cultured in 37° C., 5% CO2 incubator including minimum essential medium (2 mM L-glutamine, earle's BSS adjusted to contain 1.5 g/L sodium bicarbonate, 0.1 mM nonessential amino acids, and 1 mM sodium pyruvate) added with 10% fetal bovine serum (FBS) and 1% antibiotic (100 U/ml penicillin and 100 µg/ml streptomycin).
The intracellular DGAT enzyme activity was measured based on an amount of triglycerides produced in the cultured HepG2 cells, by adding 10 μM enzyme inhibitor compounds obtained in Examples 1-51, respectively, and then determining the effect of the enzyme inhibitors according to reduction rate of the triglyceride production.
Specifically, cells were seeded 1×10^6 cell/ml per well of the 24 well culture plate, and 24 hours after incubation, medium was exchanged with FBS-free DMEM medium, and sample of 0.2 mCi [^14C]glycerol (Amersham) was added as substrate, and the reaction was allowed to occur for 6 hr. The induced production of triglyceride was catalyzed by the DGAT enzyme, and DGAT enzyme activity was determined based on the amount of production of triglyceride which was measured based on the amount of radiation. The sample was dissolved in dimethylsulfoxide (DMSO) to be used, and the control group in the triglyceride production reaction was reacted with dimethylsulfoxide only (i.e., without sample), and the amount of the triglyceride production rate was set to 100.
After the reaction completed, the substrate [^14C]glycerol which was either not absorbed into cells or not used for the reaction, were removed with phosphate-buffer-saline (PBS), and 0.5 ml extraction solvent (hexane:isopropanol=3:2, v:v) was added to extract full fat containing triglycerides. With 0.5 ml extraction solvent, extract was obtained two times for 30 min each, and 1 ml of the extract was concentrated with nitrogen gas. After removing the extraction solvent, the total fat was dissolved in organic solvent (chloroform:methanol=2:1) and spotted with thin-layer chromatography (TLC:silica gel 60F254, thickness: 0.5 mm, Merck) on the developing solvent (hexane:diethyl ether:acetic acid=80:20:1, v: v: v). Triglycerides (Rf value: 0.4) were isolated on TLC, and after exposing the TLC plate to the film with photosensitivity to radiation energy (imaging plate' Fujifilm, BMS-MS 2040) for 3 hr, the amount of [^14C] radiation of triglyceride was measured by imaging analysis (FLA 7000). The remaining cells after the extraction were dissolved in 0.3 ml 0.1 N sodium hydroxide for use in the measurement of protein concentration of the cells used for the reaction.
The experimental errors among the respective experimental groups were compensated with the experimental value which was obtained by dividing the measured radiation of triglyceride by protein concentration, and the production rate of triglyceride according to the respective compounds of Examples 1-51 are tabulated below.

C57BL/6J mice = experiment: Oral lipid tolerance test (OLTT), corn oil load; assay type: in vivo; settings: for increase of triglyceride concentration: 30 mg/kg; for effect on blood triglyceride concentration (in words): administered to mice
Method: For experiment, 8-week-old male C57BL/6J mice were purchased from Biolink, adapted to environment in bio clean room (Temp. 22±3° C., Humidity 50±10%, Lighting 12 hr interval) for 1 week, and one day before the experiment, fasted for 16 hr. The mice were allowed to freely eat radiation-sterilized solid rodent feed (Harlan, Ind., USA), except for the 16 hr fasting period before the administration of test sample, and were also allowed to freely have a sufficient amount of drinking water which was sterilized in autoclave throughout the test period.
Seven C57BL/6J mice were allocated for solvent control group (V.C., Vehicle Control), and another seven for experimental group (sample group), after which sample was administered as follows.
The normal control group was administered with administration medium (0.5% CMC; carboxy methyl cellulose) only, while the experimental group was orally administered with the compounds of Examples 27 and 49 by 10, 30 mg/kg concentrations, respectively. Before administering the samples to all the animals of the experimental group, the animals were fasted for 16 hr, after which the corresponding sample was orally administered one time, using sonde for oral administration. After 60 min, 6 ml/kg liquid measure of corn oil was orally administered. Blood samples were taken immediately before administration of the corn oil (at 0 hr), and after the corn coil administration, the blood samples were taken directly using heparin-treated capillary tube from retro-orbital sinus at predetermined time (at 2 hr and at 4 hr). The blood samples were centrifuged at 3,000 rpm for 10 min to separate plasma, and the concentration of triglyceride was directly analyzed with automated hematology chemistry analyzer (Hitachi 7150, Japan).

[1] = 10 mg/kg oral, 0 hr (immediately before corn oil)
[2] = 10 mg/kg oral, 2 hr after corn oil
[3] = 10 mg/kg oral, 4 hr after corn oil
[4] = 30 mg/kg oral, 0 hr (immediately before corn oil)
[5] = 30 mg/kg oral, 2 hr after corn oil
[6] = 30 mg/kg oral, 4 hr after corn oil
[7] = after 2 hr of corn oil administration
[8] = after 4 hr of corn oil administration

Structure (SMILES) | activity at 10 µM (HuTu80 cells) [%] | inhibition at 10 µM (HuTu80 cells) [%] | activity at 10 µM (HepG2 cells) [%] | Serum TG (C57BL/6J mice; [1]) [mg/dL] | Serum TG (C57BL/6J mice; [2]) [mg/dL] | Serum TG (C57BL/6J mice; [3]) [mg/dL] | Serum TG (C57BL/6J mice; [4]) [mg/dL] | Serum TG (C57BL/6J mice; [5]) [mg/dL] | Serum TG (C57BL/6J mice; [6]) [mg/dL] | increase of triglyceride concentration (C57BL/6J mice; [7]) | increase of triglyceride concentration (C57BL/6J mice; [8]) | effect on blood triglyceride concentration (in words) (C57BL/6J mice) | inhibition at 10 µM (HepG2 cells) [%] | activity at 0.3 µM (HuTu80 cells) [%] | activity at 1 µM (HuTu80 cells) [%] | activity at 3 µM (HuTu80 cells) [%] | inhibition of biosynthesis of triglycerides (in words) (HuTu80 cells)
CC(C)=CCn1cc(/C=C/C(=O)N(NC(=O)c2ccccc2)C(C)C)c2ccccc21 [Example 27, (E)-N′-isopropyl-N′-(3-(1-(3-methylbut-2-enyl)-1H-indol-3-yl)acryloyl)benzohydrazide] | 13.1 ± 0.9 | 70 to 80 | 58.5 | 62.8 ± 20.6 | 171.0 ± 61.7 | 83.0 ± 22.8 | 45.4 ± 7.2 | 104.2 ± 40.3 | 79.8 ± 37.3 | approximately 1.9 fold | approximately 1.1 fold | superior effect of decreasing blood triglyceride concentration | – | – | – | – | –
CC(C)N(NC(=O)c1ccccc1)C(=O)/C=C/c1cn(C(=O)C(C)(C)C)c2ccccc12 [Example 31, (E)-N′-isopropyl-N′-(3-(1-pivaloyl-1H-indol-3-yl)acryloyl)benzohydrazide] | – | – | 93.3 | – | – | – | – | – | – | – | – | – | – | – | – | – | –
CC(C)N(NC(=O)c1ccccc1)C(=O)/C=C/c1cn(C(=O)c2ccccc2)c2ccccc12 [Example 32, (E)-N′-(3-(1-benzoyl-1H-indol-3-yl)acryloyl)-N′-isopropylbenzohydrazide] | – | – | 91.4 | – | – | – | – | – | – | – | – | – | – | – | – | – | –
CC(C)N(NC(=O)c1ccccc1)C(=O)/C=C/c1cn(C(=O)CC(C)(C)C)c2ccccc12 [Example 33, (E)-N′-(3-(1-(3,3-dimethylbutanoyl)-1H-indol-3-yl)acryloyl)-N′-isopropylbenzohydrazide] | – | – | 78.2 | – | – | – | – | – | – | – | – | – | 20 to 30 | – | – | – | –
CC(C)N(NC(=O)c1ccc(F)cc1)C(=O)/C=C/c1cn(C(=O)OC(C)(C)C)c2ccccc12 [Example 44, (E)-tert-butyl 3-(3-(2-(4-fluorobenzoyl)-1-isopropylhydrazinyl)-3-oxoprop-1-enyl)-1H-indole-1-carboxylate] | 20 ± 1.2 | 70 to 80 | 94.8 | – | – | – | – | – | – | – | – | – | – | 63.9 ± 4.3 | 43.7 ± 0.3 | 29 ± 0.9 | inhibited biosynthesis of triglycerides in a concentration-dependent manner
CC(C)CCn1cc(/C=C/C(=O)N(NC(=O)c2ccc(F)cc2)C(C)C)c2ccccc21 [Example 46, (E)-4-fluoro-N′-(3-(1-isopentyl-1H-indol-3-yl)acryloyl)-N′-isopropylbenzohydrazide] | 20 ± 1.8 | 70 to 80 | 63.5 | – | – | – | – | – | – | – | – | – | 30 to 40 | 30 ± 0.3 | 30 ± 1.3 | 20 ± 1.2 | inhibited biosynthesis of triglycerides in a concentration-dependent manner
Cc1cccc(C(=O)NN(C(=O)/C=C/c2cn(C(=O)OC(C)(C)C)c3ccccc23)C(C)C)c1 [Example 47, (E)-tert-butyl 3-(3-(1-isopropyl-2-(3-methylbenzoyl)hydrazinyl)-3-oxoprop-1-enyl)-1H-indole-1-carboxylate] | 13.7 ± 1.5 | 70 to 80 | 74.7 | – | – | – | – | – | – | – | – | – | 20 to 30 | 56.1 ± 0.1 | 30.2 ± 1.2 | 19 ± 5 | inhibited biosynthesis of triglycerides in a concentration-dependent manner
Cc1ccc(C(=O)NN(C(=O)/C=C/c2cn(C(=O)OC(C)(C)C)c3ccccc23)C(C)C)cc1 [Example 48, (E)-tert-butyl 3-(3-(1-isopropyl-2-(4-methylbenzoyl)hydrazinyl)-3-oxoprop-1-enyl)-1H-indole-1-carboxylate] | 23.9 ± 0.8 | – | 96.7 | – | – | – | – | – | – | – | – | – | – | – | – | – | –
CC(C)=CCn1cc(/C=C/C(=O)N(NC(=O)c2ccc(F)cc2)C(C)C)c2ccccc21 [Example 49, (E)-4-fluoro-N′-isopropyl-N′-(3-(1-(3-methylbut-2-enyl)-1H-indol-3-yl)acryloyl)benzohydrazide] | 13.1 ± 0.9 | 70 to 80 | 55.7 | 78.8 ± 23.2 | 90.8 ± 28.2 | 43.2 ± 12.9 | 45.8 ± 6.1 | 86.4 ± 11.1 | 50.0 ± 11.9 | ~2.3 fold | ~1.8 fold | superior effect of decreasing blood triglyceride concentration | – | 66.9 ± 3 | 33.4 ± 4.4 | 21.4 ± 0.3 | inhibited biosynthesis of triglycerides in a concentration-dependent manner
